Where “and” joins values, the source holds several entries; their conditions need not be identical. Equal entries are not always repeated.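 Compound exposure: 48 hours, 5 concentrations, 96-well plates. Abbreviation: GI50, concentration required for 50% inhibition of growth. TGI marks complete inhibition of growth.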 Some results are limits rather than exact numbers.

Some test systems named below: MOLT-4 leukemia; OVCAR-4 ovarian; DLD-1 colon; DMS 114 small cell lung; SNB-75 CNS; UO-31 renal; SF-295 CNS; SK-MEL-5 melanoma; SW-620 colon; HOP-92 NSCLC; OVCAR-5 ovarian.
Common to all, as to test: inhibition of tumour cell growth, NCI panel, 48 h

As to `Cc1cccc(C)c1NC(=O)CCc1nnc2s/c(=C\c3ccc(N(C)C)cc3)c(=O)n12`, the TGI in the assay on MOLT-4 leukemia, in the assay with OVCAR-4 ovarian, with DLD-1 colon, in the assay with DMS 114 small cell lung, in the assay on SNB-75 CNS and in the assay on UO-31 renal was > 100 µM in each case. The TGI with SF-295 CNS, in the assay on SK-MEL-5 melanoma, in the assay with SW-620 colon, in the assay with HOP-92 NSCLC and in the assay with OVCAR-5 ovarian was > 100 µM each time.
As for `COC(=O)CCC(=O)N1C/C(=C\c2ccccc2)C(=O)/C(=C/c2ccccc2)C1`, the TGI with MOLT-4 leukemia is 7.77 µM; in the assay with OVCAR-4 ovarian, 4.92 µM; in the assay with DLD-1 colon it was 10.9 µM; in the assay with DMS 114 small cell lung, 3.56 µM; in the assay with SNB-75 CNS, 5.27 µM; in the assay with UO-31 renal, 3.97 µM. The TGI in the assay on SF-295 CNS worked out at 5.87 µM; in the assay with SK-MEL-5 melanoma, 5.44 µM; in the assay on SW-620 colon it was 0.389 µM; in the assay with HOP-92 NSCLC, 18.7 µM; in the assay on OVCAR-5 ovarian it was 6.24 µM.
Turning to `O=c1c2cc(Br)cc(Br)c2nc(CCCl)n1-c1ccc(O)c([N+](=O)[O-])c1`, the TGI with MOLT-4 leukemia came out at 50.5 µM; in the assay with OVCAR-4 ovarian, 29 µM; with DLD-1 colon, 36.6 µM; with DMS 114 small cell lung, 36.3 µM; in the assay with SNB-75 CNS, 39.2 µM; with UO-31 renal it was 33.9 µM. Besides, the TGI in the assay on SF-295 CNS was 45 µM; with SK-MEL-5 melanoma, 35.6 µM; in the assay with SW-620 colon, 36.2 µM; in the assay on HOP-92 NSCLC, 52.2 µM; in the assay on OVCAR-5 ovarian, 33.1 µM.
As to `CCCCCCCCCC[C@@H](O)[C@@H]1CC[C@@H]([C@@H]2CC[C@@H]([C@@H](O)CCCCCCCCCC[C@H](O)CC3=CC(C)OC3=O)O2)O1` (stereo partly specified), the GI50 in the assay on MOLT-4 leukemia is 2.93 µM; with SNB-75 CNS, 6.08 µM; in the assay on UO-31 renal it was 2.42 µM; with SF-295 CNS it was 0.686 µM; in the assay on SW-620 colon it was 4.82 µM; with HOP-92 NSCLC it was 10.3 µM. Moreover, the GI50 with OVCAR-5 ovarian was > 75.4 µM. Further, the TGI in the assay on OVCAR-4 ovarian is > 51.4 µM; in the assay on DLD-1 colon, > 100 µM; in the assay with DMS 114 small cell lung it was 11.2 µM; in the assay on SNB-75 CNS, 8.58 µM and 18 µM; in the assay on UO-31 renal, 5.24 µM and > 20 µM; with SF-295 CNS, > 100 µM. Moreover, the TGI is 3.11 µM and 2.6 µM in the assay with SK-MEL-5 melanoma; > 100 µM with SW-620 colon; 8.09 µM and 33.8 µM in the assay with HOP-92 NSCLC; > 100 µM in the assay on OVCAR-5 ovarian.
For the compound `C1OC1CN1CCN(CC2CO2)CC1` (stereo unspecified), the TGI in the assay with MOLT-4 leukemia was > 62.4 µM; in the assay on OVCAR-4 ovarian, > 100 µM; in the assay on DLD-1 colon it was > 100 µM; in the assay with DMS 114 small cell lung, > 100 µM; in the assay with SNB-75 CNS, > 100 µM; in the assay on UO-31 renal, > 100 µM. Also, the TGI in the assay with SF-295 CNS, in the assay with SK-MEL-5 melanoma, with SW-620 colon, in the assay with HOP-92 NSCLC and in the assay with OVCAR-5 ovarian was > 100 µM in each case.
With `O=C(O)[C@@H]1OCCOCCO[C@@H](C(=O)O)[C@H](C(=O)O)OCCOCCO[C@H]1C(=O)O`, the TGI with MOLT-4 leukemia is > 100 µM; with OVCAR-4 ovarian, > 100 µM; in the assay with DLD-1 colon it was > 61.8 µM; with DMS 114 small cell lung, > 92.3 µM; in the assay on SNB-75 CNS it was > 100 µM; in the assay on UO-31 renal, > 100 µM. The TGI with SF-295 CNS was > 100 µM; in the assay with SK-MEL-5 melanoma, > 100 µM; with SW-620 colon, > 90.1 µM; in the assay with HOP-92 NSCLC, > 100 µM; in the assay with OVCAR-5 ovarian, > 100 µM.
Take `CC1=C(C(=O)NCc2ccccc2)C(c2ccc(Cl)c(Cl)c2)C(C(=O)NCc2ccccc2)=C(C)N1`: the TGI in the assay on MOLT-4 leukemia, in the assay with OVCAR-4 ovarian, in the assay on DLD-1 colon, with DMS 114 small cell lung, in the assay on SNB-75 CNS and with UO-31 renal was > 100 µM each time. The TGI in the assay with SF-295 CNS, in the assay with SK-MEL-5 melanoma, with SW-620 colon, in the assay with HOP-92 NSCLC and with OVCAR-5 ovarian was > 100 µM in each case.
Consider `N#Cc1c(-c2ccccc2)cc(-c2ccc(N)cc2)[nH]c1=O`, for which the TGI in the assay with MOLT-4 leukemia, with OVCAR-4 ovarian, in the assay with DLD-1 colon, in the assay with DMS 114 small cell lung, with SNB-75 CNS and in the assay on UO-31 renal was > 100 µM throughout. The TGI with SF-295 CNS, in the assay on SK-MEL-5 melanoma, in the assay on SW-620 colon, with HOP-92 NSCLC and in the assay with OVCAR-5 ovarian was > 100 µM each time.
Consider `N#COc1ccc(Oc2ccccc2)cc1`, for which the TGI in the assay with MOLT-4 leukemia is > 100 µM; with OVCAR-4 ovarian, > 100 µM; in the assay on DLD-1 colon it was > 100 µM; in the assay on DMS 114 small cell lung, 89.6 µM; in the assay with SNB-75 CNS, > 100 µM; in the assay on UO-31 renal, > 100 µM. Further, the TGI in the assay with SF-295 CNS, with SK-MEL-5 melanoma, in the assay with HOP-92 NSCLC and in the assay with OVCAR-5 ovarian was > 100 µM each time.
For `C/C(=N\NC(N)=S)c1ccc(C)c(C)c1`, the TGI is 90.2 µM in the assay with MOLT-4 leukemia; > 100 µM with OVCAR-4 ovarian; > 100 µM in the assay with DLD-1 colon; 38.3 µM with DMS 114 small cell lung; > 100 µM in the assay on SNB-75 CNS; > 100 µM with UO-31 renal. Also, the TGI in the assay with SF-295 CNS, with SK-MEL-5 melanoma, in the assay with SW-620 colon, with HOP-92 NSCLC and in the assay with OVCAR-5 ovarian was > 100 µM each time.
Consider `Cc1coc2c1C(=O)C(=O)c1ccccc1-2`, for which the TGI in the assay on MOLT-4 leukemia was 6.03 µM; in the assay with OVCAR-4 ovarian, 3.22 µM; in the assay with DLD-1 colon, 4.26 µM; with DMS 114 small cell lung, 0.326 µM; in the assay on SNB-75 CNS, 3.15 µM; with UO-31 renal, 10.4 µM. In addition, the TGI came to 3.03 µM in the assay with SF-295 CNS; 1.92 µM in the assay with SK-MEL-5 melanoma; 2.92 µM in the assay with SW-620 colon; 1.28 µM in the assay with HOP-92 NSCLC; 3.55 µM in the assay on OVCAR-5 ovarian.

These data come from PubChem BioAssay (NCI).
